Test results: patent EP0533933A1, “BISHETEROCYCLIC COMPOUND” (YAMANOUCHI PHARMACEUTICAL CO. LTD., priority 1990, dated 1992)

Tests used:
KK mice = experiment: Hypoglycemic activity (blood glucose decrease in KK mice, glucose oxidase method); assay type: in vivo; details: percent decrease of blood glucose from the level prior to administration; dosage level of 100 mg; per os daily for 4 consecutive days, blood glucose on day 5; male KK mice on high caloric diet
Method: Male KK mice, 4-5 weeks old, were obtained from Japan Clea. The animals were individually put on a high caloric diet (CMF, Oriental Yeast) and the individuals weighing about 40 g were selectively used.
For determination of blood glucose, 10 µl of blood was withdrawn from the caudal vein, deproteinized with 100 µl of 0.33 N perchloric acid and centrifuged. The glucose in the supernatant was assayed by the glucose oxidase method. Groups of 6 animals showing 200 mg/dℓ or more of blood glucose were submitted to the experiment.
The test compound was suspended in 0.5% methylcellulose and administered daily per os for 4 consecutive days. Before administration and on day 5, the blood was withdrawn from the caudal vein of each animal and the blood glucose was determined by the above method.
Hypoglycemic potency was expressed in terms of percent decrease from the glucose level prior to administration of the test compound and the results were statistically evaluated at the significance level of p=0.05. * = p<0.05 ** = p<0.01 *** = p<0.001 As a result, a significant hypoglycemic effect was attained within the dose range of 10 to 300 mg/kg.

Fischer rats = experiment: Oral toxicity in Fischer rats, 3 consecutive days; assay type: in vivo; details: Fischer rats (2 animals per sex), orally, 1,000 mg/kg for 3 consecutive days

| Structure (SMILES) | % Inhibition (KK mice) [%] | abnormality after oral administration (Fischer rats) |
| --- | --- | --- |
| O=C1NC(=O)C(Cc2ccc(OCCCCCCCOc3ccc(CC4SC(=O)NC4=O)cc3)cc2)S1 (stereo not shown) [Example 14, 1,7-bis[4-[(2,4-dioxo-5-thiazolidinyl)methyl]phenoxy]heptane] | 37 | – |
| O=C1NC(=O)C(Cc2ccc(Cc3ccc(CC4SC(=O)NC4=O)cc3)cc2)S1 (stereo not shown) [Example 15, 4,4'-bis[(2,4-dioxo-5-thiazolidinyl)methyl]diphenylmethane] | 47 | no abnormality was observed |
| O=C1NC(=O)C(Cc2ccc(OC/C=C/COc3ccc(CC4SC(=O)NC4=O)cc3)cc2)S1 (stereo not drawn) [Example 16, trans-1,4-bis[p-[(2,4-dioxo-5-thiazolidinyl)methyl]phenoxy]-2-butene] | 51 | – |
